Here are results for one compound from US6686370B2, “Triazospiro compounds having nociceptin receptor affinity” (Euro-Celtique S.A., priority 1999, dated 2004).

As to `O=C1NCN(c2ccccc2)C12CCN(C1CCc3ccccc3C1)CC2` (stereo not shown) [8-[1,2,3,4tetrahydronaphthyl]-1-phenyl-1,3,8-triazospiro[4.5]decan-4-one], the melting point is 192 to 193 °C.

As usually defined, the melting point is the temperature of the solid-liquid transition.
